Assay results from BindingDB's records for doi:10.1016/j.bmcl.2009.07.052 (Incyte, 2009).

These compounds were tested against Receptor tyrosine-protein kinase erbB-2 (Homo sapiens, UniProt P04626) (assay: Inhibition of HER-2).
Chain of Receptor tyrosine-protein kinase erbB-2 (P04626 whole entry): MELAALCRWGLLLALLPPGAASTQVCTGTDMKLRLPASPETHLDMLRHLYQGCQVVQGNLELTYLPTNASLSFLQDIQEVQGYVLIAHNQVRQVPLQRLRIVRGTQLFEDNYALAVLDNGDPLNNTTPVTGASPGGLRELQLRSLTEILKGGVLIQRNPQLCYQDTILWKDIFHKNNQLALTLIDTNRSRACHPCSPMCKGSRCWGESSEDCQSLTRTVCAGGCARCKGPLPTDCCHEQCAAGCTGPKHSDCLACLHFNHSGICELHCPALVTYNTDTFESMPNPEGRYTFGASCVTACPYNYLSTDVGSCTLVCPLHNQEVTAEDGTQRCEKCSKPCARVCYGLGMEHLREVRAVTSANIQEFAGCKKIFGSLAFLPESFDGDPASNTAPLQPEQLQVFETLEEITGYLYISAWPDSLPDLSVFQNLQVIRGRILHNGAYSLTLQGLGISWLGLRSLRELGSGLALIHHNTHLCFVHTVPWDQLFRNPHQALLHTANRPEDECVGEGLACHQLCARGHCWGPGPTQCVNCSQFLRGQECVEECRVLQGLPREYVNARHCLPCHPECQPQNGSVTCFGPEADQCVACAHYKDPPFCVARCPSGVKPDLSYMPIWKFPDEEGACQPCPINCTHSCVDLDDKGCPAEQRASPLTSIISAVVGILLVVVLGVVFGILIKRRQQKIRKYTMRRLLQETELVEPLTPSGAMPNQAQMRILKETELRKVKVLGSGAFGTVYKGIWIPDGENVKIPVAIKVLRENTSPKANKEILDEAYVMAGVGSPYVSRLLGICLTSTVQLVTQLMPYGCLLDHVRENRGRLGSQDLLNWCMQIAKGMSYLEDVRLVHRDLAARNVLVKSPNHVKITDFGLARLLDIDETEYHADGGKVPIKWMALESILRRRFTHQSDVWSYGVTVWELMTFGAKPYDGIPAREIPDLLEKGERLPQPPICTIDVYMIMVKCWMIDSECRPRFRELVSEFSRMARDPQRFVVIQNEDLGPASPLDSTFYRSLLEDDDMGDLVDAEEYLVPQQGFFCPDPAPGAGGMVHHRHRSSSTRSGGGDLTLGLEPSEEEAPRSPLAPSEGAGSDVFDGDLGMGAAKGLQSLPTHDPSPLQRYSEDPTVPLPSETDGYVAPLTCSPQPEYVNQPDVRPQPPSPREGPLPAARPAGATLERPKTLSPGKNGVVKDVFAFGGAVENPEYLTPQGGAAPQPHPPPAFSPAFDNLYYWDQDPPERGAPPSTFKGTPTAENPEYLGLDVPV

IC50	SMILES
28 nM	O=C(NO)[C@H]1CC(OC(=O)N2CCCC2)CN[C@@H]1C(=O)N1CC[C@H](c2ccccc2)C1 (stereo partly drawn)
4.3 nM	O=C(NO)[C@H]1CC(CC(=O)N2CCCC2)CN[C@@H]1C(=O)N1CC=C(c2ccccc2)CC1 (stereo partly drawn) [(2S,3S)-N-hydroxy-5-(2-oxo-2-(pyrrolidin-1-yl)ethyl)-2-(4-phenyl-1,2,3,6-tetrahydropyridine-1-carbonyl)piperidine-3-carboxamide]
5.6 nM	O=C(NO)[C@H]1CC(CC(=O)N2CCCC2)CN[C@@H]1C(=O)N1CC[C@H](c2ccccc2)C1 (stereo partly drawn) [(2S,3S)-N-hydroxy-5-(2-oxo-2-(pyrrolidin-1-yl)ethyl)-2-((R)-3-phenylpyrrolidine-1-carbonyl)piperidine-3-carboxamide]
10 nM	CN(C(=O)c1ccccc1)C1CN[C@H](C(=O)N2CC=C(c3ccccc3)CC2)[C@@H](C(=O)NO)C1 (stereo partly drawn) [(2S,3S)-N-hydroxy-5-(N-methylbenzamido)-2-(4-phenyl-1,2,3,6-tetrahydropyridine-1-carbonyl)piperidine-3-carboxamide]
29 nM	CN(C(=O)c1ccccc1)C1CN[C@H](C(=O)N2CC[C@H](c3ccccc3)C2)[C@@H](C(=O)NO)C1 (stereo partly drawn) [(2S,3S)-N-hydroxy-5-(N-methylbenzamido)-2-((R)-3-phenylpyrrolidine-1-carbonyl)piperidine-3-carboxamide]
15.5 nM	CC(C)C(=O)N(C)C1CN[C@H](C(=O)N2CC=C(c3ccccc3)CC2)[C@@H](C(=O)NO)C1 (stereo partly drawn) [(2S,3S)-N-hydroxy-5-(N-methylisobutyramido)-2-(4-phenyl-1,2,3,6-tetrahydropyridine-1-carbonyl)piperidine-3-carboxamide]
52 nM	CC(C)C(=O)N(C)C1CN[C@H](C(=O)N2CC[C@H](c3ccccc3)C2)[C@@H](C(=O)NO)C1 (stereo partly drawn) [(2S,3S)-N-hydroxy-5-(N-methylisobutyramido)-2-((R)-3-phenylpyrrolidine-1-carbonyl)piperidine-3-carboxamide]
8.1 nM	COC(=O)N1C[C@@H](OC(=O)N2CCCC2)C[C@H](C(=O)NO)[C@H]1C(=O)N1CCN(c2ccccc2)CC1 [(2S,3S,5S)-methyl 3-(hydroxycarbamoyl)-2-(4-phenylpiperazine-1-carbonyl)-5-(pyrrolidine-1-carbonyloxy)piperidine-1-carboxylate]
30 nM	O=C(NO)[C@H]1C[C@@H](OC(=O)N2CCCC2)CN[C@@H]1C(=O)N1CC=C(c2ccccc2)CC1 [(3R,5S,6S)-5-(hydroxycarbamoyl)-6-(4-phenyl-1,2,3,6-tetrahydropyridine-1-carbonyl)piperidin-3-yl pyrrolidine-1-carboxylate]
3.8 nM	CN1C[C@@H](OC(=O)N2CC=CC2)C[C@H](C(=O)NO)[C@H]1C(=O)N1CCN(c2ccccc2)CC1 [(3S,5S,6S)-5-(hydroxycarbamoyl)-1-methyl-6-(4-phenylpiperazine-1-carbonyl)piperidin-3-yl 2,5-dihydro-1H-pyrrole-1-carboxylate]
50.5 nM	CN1C[C@@H](OC(=O)N2CCC(F)(F)C2)C[C@H](C(=O)NO)[C@H]1C(=O)N1CCN(c2ccccc2)CC1 [(3S,5S,6S)-5-(hydroxycarbamoyl)-1-methyl-6-(4-phenylpiperazine-1-carbonyl)piperidin-3-yl 3,3-difluoropyrrolidine-1-carboxylate]
4.4 nM	CN1C[C@@H](OC(=O)N2CCCCCC2)C[C@H](C(=O)NO)[C@H]1C(=O)N1CCN(c2ccccc2)CC1 [(3S,5S,6S)-5-(hydroxycarbamoyl)-1-methyl-6-(4-phenylpiperazine-1-carbonyl)piperidin-3-yl azepane-1-carboxylate]
44.5 nM	CN1C[C@@H](OC(=O)N2CCC2)C[C@H](C(=O)NO)[C@H]1C(=O)N1CCN(c2ccccc2)CC1 [(3S,5S,6S)-5-(hydroxycarbamoyl)-1-methyl-6-(4-phenylpiperazine-1-carbonyl)piperidin-3-yl azetidine-1-carboxylate]
27.5 nM	CN1C[C@@H](OC(=O)N2CCCCCCC2)C[C@H](C(=O)NO)[C@H]1C(=O)N1CCN(c2ccccc2)CC1 [(3S,5S,6S)-5-(hydroxycarbamoyl)-1-methyl-6-(4-phenylpiperazine-1-carbonyl)piperidin-3-yl azocane-1-carboxylate]
31 nM	CN(C)C(=O)O[C@H]1C[C@H](C(=O)NO)[C@@H](C(=O)N2CCN(c3ccccc3)CC2)N(C)C1 [(3S,5S,6S)-5-(hydroxycarbamoyl)-1-methyl-6-(4-phenylpiperazine-1-carbonyl)piperidin-3-yl dimethylcarbamate]
7.3 nM	CN1C[C@@H](OC(=O)N2CCCCC2)C[C@H](C(=O)NO)[C@H]1C(=O)N1CCN(c2ccccc2)CC1 [(3S,5S,6S)-5-(hydroxycarbamoyl)-1-methyl-6-(4-phenylpiperazine-1-carbonyl)piperidin-3-yl piperidine-1-carboxylate]
11.5 nM	CN1C[C@@H](OC(=O)N2CCCC2)C[C@H](C(=O)NO)[C@H]1C(=O)N1CCN(c2ccccc2)CC1 [(3S,5S,6S)-5-(hydroxycarbamoyl)-1-methyl-6-(4-phenylpiperazine-1-carbonyl)piperidin-3-yl pyrrolidine-1-carboxylate]
11 nM	O=C(NO)[C@H]1C[C@H](OC(=O)N2CCCC2)CN[C@@H]1C(=O)N1CC=C(c2ccccc2)C1 [(5S,6S)-5-(hydroxycarbamoyl)-6-(3-phenyl-2,5-dihydro-1H-pyrrole-1-carbonyl)piperidin-3-yl pyrrolidine-1-carboxylate]
5.6 nM	O=C(NO)[C@H]1CC(OC(=O)N2CCCC2)CN[C@@H]1C(=O)N1CC=C(c2ccccc2)CC1 (stereo partly drawn) [(5S,6S)-5-(hydroxycarbamoyl)-6-(4-phenyl-1,2,3,6-tetrahydropyridine-1-carbonyl)piperidin-3-yl pyrrolidine-1-carboxylate]
3.8 nM	O=C(NO)[C@H]1C[C@H](OC(=O)N2CCCC2)CN[C@@H]1C(=O)N1CCN(c2ccccc2)CC1 [(5S,6S)-5-(hydroxycarbamoyl)-6-(4-phenylpiperazine-1-carbonyl)piperidin-3-yl pyrrolidine-1-carboxylate]
42 nM	O=C(NO)[C@H]1C[C@H](OC(=O)N2CCCC2)CN[C@@H]1C(=O)N1CCC(c2ccccc2)CC1 [(5S,6S)-5-(hydroxycarbamoyl)-6-(4-phenylpiperidine-1-carbonyl)piperidin-3-yl pyrrolidine-1-carboxylate]
70 nM	O=C(NO)[C@H]1CC(OC(=O)N2CCCC2)CN[C@@H]1C(=O)N1Cc2ccccc2C1 (stereo partly drawn) [(5S,6S)-5-(hydroxycarbamoyl)-6-(isoindoline-2-carbonyl)piperidin-3-yl pyrrolidine-1-carboxylate]
8.5 nM	CC(C)OC(=O)N(C)C1CN[C@H](C(=O)N2CC=C(c3ccccc3)CC2)[C@@H](C(=O)NO)C1 (stereo partly drawn) [isopropyl-(5S,6S)-5-(hydroxycarbamoyl)-6-(4-phenyl-1,2,3,6-tetrahydropyridine-1-carbonyl)piperidin-3-yl(methyl)carbamate]
